Assay results taken from patent publication US9012403B2, “Peptides as active agents to stabilize biological barriers” (XiberScience GmbH, priority 2010, dated 2015).
Marks after values point to notes of the source that are not given here.

Assays:
GEF [1] = assay: GEF-activity in membrane fractions of HpMec cells (RhoGEF Exchange Assay); type: cell-based; conditions: for increase in GEF-activity: HepMec cells, thrombin; for GEF-activity, relative values compared to unstimulated control (Mean): HpMec
Experimental: (§1) To measure the GEF-inhibitory effect, the following cell lines were used: Caco-2 (epithelial cells from adeno-carcinoma), ECV304 (epithelial cells from bladder carcinoma) and HpMec (endothelial cells, immortalized pulmonary micro-vascular cells). All cells were grown at standard conditions (37° C., 5% CO2 and 95% relative humidity (rH)). Culture Medium used for Caco-2: DMEM+1 mM sodium pyruvate+20% FCS+1% Penicillin Streptomycin; for ECV 304: RPMI 1640+10% FCS+1% Penicillin Streptomycin; and for HpMec: IMDM+25 mM Hepes+10% Human Serum+1% Penicillin Streptomycin+1% L-Glutamine+ECGS/Heparin 2 ml. 4 h before the experiment, cells were starved by serum withdrawal. To induce GEF-activity, cells were stimulated with thrombin, lipopolysaccharide (LPS) or PMA for the indicated time in presence or absence of 50 μg/ml XIB1-a or XIB1-b. After stimulation, membrane fractions were prepared by using the commercial available “Compartemental Protein Extraction Kit” from Biochain institutes. Membrane fractions were prepared according to the manufacturer instructions. GEF-activity in membrane lysates was determined by using “RhoGEF Exchange Assay Biochem Kit” from Cytoskeleton Inc. according to manufacturer instructions. GEF-activity was measured as fluorescence at using the Fluoroskan Ascent FL 2.6 from Thermo Electron Corporation. The excitation Filter wavelength was set at 355 nm and the emission filter wavelength at 460 nm.

GEF [2] = assay: GEF-activity in membrane fractions of ECV304 cells (RhoGEF Exchange Assay); type: cell-based
Experimental: as §1

[3] = system: Phosphorylated Myosin Light Chain (MLC) and actin stress fibers; assay: MLC phosphorylation and actin stress fiber formation in ECV304 cells (microscopy score); type: cell-based
Experimental: (§2) To measure MLC phosphorylation and actin stress fiber formation, the following cell lines were used: Caco-2, ECV304 and HpMec. All cells were grown at standard conditions (37° C., 5% CO2 and 95% rH). Culture Medium used: for Caco-2: DMEM+1 mM sodium pyruvate+20% FCS+1% Penicillin Streptomycin; for ECV 304: RPMI 1640+10% FCS+1% Penicillin Streptomycin; and for HpMec: IMDM+25 mM Hepes+10% Human Serum+1% Penicillin Streptomycin+1% L-Glutamine+ECGS/Heparin 2 ml. 4 h before the experiment, cells were starved by serum withdrawal. To induce GEF-activity, cells were stimulated with thrombin, LPS or PMA for the indicated time in presence or absence of 50 μg/ml XIB1-a or XIB1-b. After stimulation, cells were fixed using 4% PFA. Phospho MLC was detected by using the “rabbit anti phosphor-myosin light chain antibody” from Chemicon in a concentration of 3 μl/ml in PBS (Gibco) supplemented with 0.1% Triton X-100. As detection antibody, the Alexa 448 tagged “anti Rabbit IgG Antibody” from Invitrogen was used in a concentration of 0.5 μl/ml in PBS (Gibco) supplemented with 0.1% Triton X-100. Aktin was detected using TRITC-labeled Phalloidin in a concentration of 0.5 μl/ml in PBS (Gibco) supplemented with 0.1% Triton. Stained cells were analyzed by using a Zeiss Laser Scan microscope. Evaluation of the cyto-skeletal activation was performed by 2 independent observers that were blinded to the conditions. Evaluation criteria were set as follows:
(§3) Actin: parallel actin bundles absent=0; distinct bundle formation=1; prominent parallel bundles=2; Phospho-MLC: present at cell poles=0; slight co-localization with actin bundles=1; prominent co-localization with actin bundles=2

GTP-bound RhoA [4] = assay: GTP-associated active RhoA in HpMec membrane fraction (western blot); type: cell-based; conditions: for increase in RhoA-activity: HepMec cells, thrombin; for GTP-bound RhoA, relative values compared to unstimulated control (Mean): HpMec
Experimental: (§4) To measure the GTP-associated active RhoA, the following cell lines were used: Caco-2, ECV304 and HpMec. All cells were grown at standard conditions (37° C., 5% CO2 and 95% rH). 4 h before the experiment, cells were starved by serum withdrawal. To induce GEF-activity, cells were stimulated with thrombin, LPS or PMA for the indicated time in presence or absence of 50 μg/ml XIB1-a or XIB1-b. After stimulation, membrane fractions were prepared by using the commercial available “Compartemental Protein Extraction Kit” from Biochain Institutes. Membrane fractions were prepared according to the manufacturer instructions. The membrane fraction was separated on 15% polyacrylamide gel according to standard procedures of gel electrophoresis. The gels were afterwards blotted on a nitrocellulose membrane according to standard procedures of western blotting. GTP-bound RhoA was detected using RhoA-GTP monoclonal antibody from NewEast Inc. in a dilution of 1:5000. Protein bands were analyzed with the Dolphin-1D Gel analysis system (Wealtec).

GTP-bound RhoA [5] = assay: GTP-associated active RhoA in ECV304 membrane fraction (western blot); type: cell-based
Experimental: as §4

[6] = system: Phosphorylated Myosin Light Chain (MLC) and actin stress fibers; assay: MLC phosphorylation and actin stress fiber formation in HpMec cells (microscopy score); type: cell-based
Experimental: as §2, §3

[7] = system: Phosphorylated Myosin Light Chain (MLC) and actin stress fibers; assay: MLC phosphorylation and actin stress fiber formation in Caco-2 cells (microscopy score); type: cell-based
Experimental: as §2, §3

GEF [8] = assay: GEF-activity in membrane fractions of Caco-2 cells (RhoGEF Exchange Assay); type: cell-based
Experimental: as §1

LPS induced lung injury = assay: LPS induced lung injury, bronchoalveolar lavage; type: in vivo; conditions: mice, n = 20
Experimental: Male C57Bl/6 Mice (Charles River, Germany) were kept at the animal facility of the Medical University of Vienna, feed with standard diet and water was provided ad libitum. All interventions were performed according to the guide lines of AAALAC (Association for Assessment and Accreditation of Laboratory Animal Care). All experiment were approved by the Ethic committee of the Medical University of Vienna. Mice were anesthetized with isoflouran and treated with 100 ng of LPS (E. coli O55:B5, Sigma Aldrich) intranasally. XIB1-a or XIB1-b was applied either intra-peritoneally (2×2 mg/kg) or via inhalation (2×4 mg/kg), first application was performed concomitantly with LPS administration, the second application was performed 1 h after the LPS inhalation.
The trachea was exposed through a midline incision and canulated with a sterile 20-gauge catheter (BD Venflon™, Becton Dickinson Infusion Therapy, Helsingborg, Sweden). Bilateral broncho-alveolar lavage fluid (BALF) was gained by instilling two 0.5 ml aliquots of sterile saline. Approximately 0.9-1 ml BALF was retrieved per mouse. Total cell numbers were counted from each sample using a hemo-cytometer (Türck chamber), BALF differential cell counts were done on cytospin preparations stained with Giemsa. For protein measurements, BALF was diluted 1:2 in buffer containing 300 mM NaCl, 30 mM Tris, 2 mM MgCl2, 2 mM CaCl2, and Pepstatin A, Leupeptin and Aprotinin (all 20 ng/ml; pH 7.4). Protein levels in BALF were measured using the BCA protein kit according to the manufacturer's instructions (Pierce, Rockford, Ill.).
In addition, the same set-up as described above was used for comparing the impact of XIB1-b compared to Bβ15-42 (PLoS ONE (2009), 4(4): e5391), a peptide derived from fibrin having the sequence […] (SEQ ID NO: 41). Bβ15-42 was added in the same manner as XIB1-b. Again, protein content and cell count of BALF was measured.

GTP-bound RhoA [9] = assay: GTP-associated active RhoA in Caco-2 membrane fraction (western blot); type: cell-based; conditions: for increase of RhoA-activity: CaCo-2 cells, PMA-stimulus
Experimental: as §4

[10] = Thrombin 1 U/ml, 1 min, with or without peptide 50 μg/ml
[11] = Thrombin 1 U/ml, 5 min, with or without peptide 50 μg/ml
[12] = ECV 304, Thrombin 1 U/ml, 1 min, with or without peptide 50 μg/ml
[13] = ECV 304, Thrombin 1 U/ml, 5 min, with or without peptide 50 μg/ml
[14] = CaCo-2, no stimulus, 1 min, peptide 50 μg/ml
[15] = CaCo-2, no stimulus, 5 min, peptide 50 μg/ml
[16] = no stimulus, 1 min, peptide 50 μg/ml
[17] = no stimulus, 5 min, peptide 50 μg/ml
[18] = ECV 304, no stimulus, 1 min, peptide 50 μg/ml
[19] = ECV 304, no stimulus, 5 min, peptide 50 μg/ml
[20] = 6 h after LPS administration, intratracheal application
[21] = CaCo-2, PMA 1 μg/ml, 1 min, with or without peptide 50 μg/ml
[22] = CaCo-2, PMA 1 μg/ml, 5 min, with or without peptide 50 μg/ml

For Thrombin [reference compound], the “increase in GEF-activity” value (GEF [1]; after 1 min) was 3.5 fold, the “increase in GEF-activity” value (GEF [1]; after 5 min) was 3 fold and the “GEF-activity, relative values compared to unstimulated control (Mean)” value (“GEF-activity, relative values” below) (GEF [1]; [10]) was 3.5. For the same molecule, the “GEF-activity, relative values” value (GEF [1]; [11]) was 3, the “GEF-activity, relative values” value (GEF [2]; [12]) was 5 and the “GEF-activity, relative values” value (GEF [2]; [13]) was 3.4. For the same molecule, the “MLC phosphorylation and actin stress fiber formation, evaluation score (Mean)” value [3, 12] was 4, the “MLC phosphorylation and actin stress fiber formation, evaluation score (Mean)” value [3, 13] was 4 and the “increase in RhoA-activity” value (GTP-bound RhoA [4]; after 1 min) was 3.8 fold. The “increase in RhoA-activity” value (GTP-bound RhoA [4]; after 5 min) was 3.2 fold, the “GTP-bound RhoA, relative values compared to unstimulated control (Mean)” value (“GTP-bound RhoA, relative values” below) (GTP-bound RhoA [4]; [10]) was 3.8 and the “GTP-bound RhoA, relative values” value (GTP-bound RhoA [4]; [11]) was 3.2. For the same molecule, the “GTP-bound RhoA, relative values” value (GTP-bound RhoA [5]; [12]) was 4.3, the “GTP-bound RhoA, relative values” value (GTP-bound RhoA [5]; [13]) was 3.2 and the “MLC phosphorylation and actin stress fiber formation, evaluation score (Mean)” value [6, 10] was 4. The “MLC phosphorylation and actin stress fiber formation, evaluation score (Mean)” value [6, 11] was 4.

In the case of “GGGGGLSRRIP (/note=“Description of artificial sequence variable insert”) [Control Peptide, random peptide used for control purposes, reference compound]”, the “MLC phosphorylation and actin stress fiber formation, evaluation score (Mean)” value [7, 14] is reported as 0, the “MLC phosphorylation and actin stress fiber formation, evaluation score (Mean)” value [7, 15] is reported as 0 and the “GEF-activity, relative values” value (GEF [1]; [16]) is reported as 1. For the same molecule, the “GEF-activity, relative values” value (GEF [1]; [17]) was 1, the “GEF-activity, relative values” value (GEF [2]; [18]) was 1 and the “GEF-activity, relative values” value (GEF [2]; [19]) was 1. The “MLC phosphorylation and actin stress fiber formation, evaluation score (Mean)” value [3, 18] was 0, the “MLC phosphorylation and actin stress fiber formation, evaluation score (Mean)” value [3, 19] was 0 and the “GEF-activity, relative values” value (GEF [8]; [14]) was 1. For the same molecule, the “GEF-activity, relative values” value (GEF [8]; [15]) was 1, the “GTP-bound RhoA, relative values” value (GTP-bound RhoA [4]; [16]) was 1 and the “GTP-bound RhoA, relative values” value (GTP-bound RhoA [4]; [17]) was 1. The “GTP-bound RhoA, relative values” value (GTP-bound RhoA [5]; [18]) was 1, the “GTP-bound RhoA, relative values” value (GTP-bound RhoA [5]; [19]) was 1 and the “counts of neutrophils in the BALF (mean +/ SD)” value (from here on “counts … (mean +/ SD)”) (LPS induced lung injury; comparison with Bβ15-42 (Table 6), 6 h after LPS, intraperitoneal application) was 91 +/− 33 neutrophils/ml (× 10^3). The “counts … (mean +/ SD)” value (LPS induced lung injury; comparison with Bβ15-42 (Table 6), 6 h after LPS, intratracheal plus intraperitoneal application) was 94 +/− 30 neutrophils/ml (× 10^3), the “albumine content of BALFs (mean +/ SD)” value (LPS induced lung injury; comparison with Bβ15-42 (Table 6, last section), 6 h after LPS, intraperitoneal application as printed) was 250 ± 25 µg/mL and the “counts … (mean +/ SD)” value (LPS induced lung injury; 6 h after LPS administration, intraperitoneal application (2×2 mg/kg)) was 88 +/− 33 neutrophils/ml (× 10^3). For the same molecule, the “albumine content of BALFs (mean +/ SD)” value (LPS induced lung injury; [20]) was 237 ± 32 µg/mL, the “counts … (mean +/ SD)” value (LPS induced lung injury; [20]) was 90 +/− 30 neutrophils/ml (× 10^3) and the “GTP-bound RhoA, relative values” value (GTP-bound RhoA [9]; [14]) was 1. For the same molecule, the “GTP-bound RhoA, relative values” value (GTP-bound RhoA [9]; [15]) was 1, the “MLC phosphorylation and actin stress fiber formation, evaluation score (Mean)” value [6, 16] was 0 and the “MLC phosphorylation and actin stress fiber formation, evaluation score (Mean)” value [6, 17] was 0.

With `CCCCCCCCCCCCCC(=O)O[C@@H]1[C@@H](C)[C@@]2(O)[C@@H](C=C(CO)C[C@]3(O)C(=O)C(C)=C[C@@H]23)[C@@H]2C(C)(C)[C@]12OC(C)=O` [PMA, reference compound] the “MLC phosphorylation and actin stress fiber formation, evaluation score (Mean)” value [7, 21] was 3, the “MLC phosphorylation and actin stress fiber formation, evaluation score (Mean)” value [7, 22] was 3 and the “GEF-activity, relative values” value (GEF [8]; [21]) was 2.5. For the same molecule, the “GEF-activity, relative values” value (GEF [8]; [22]) was 1.8, the “increase of GEF-activity” value (GEF [8]; CaCo-2 cells, 1 min PMA-stimulus) was 2.5 fold and the “GTP-bound RhoA, relative values” value (GTP-bound RhoA [9]; [21]) was 2.3. The “GTP-bound RhoA, relative values” value (GTP-bound RhoA [9]; [22]) was 2.0, the “increase of RhoA-activity” value (GTP-bound RhoA [9]; after 5 mm of stimulation) was 2 fold and the “increase of RhoA-activity” value (GTP-bound RhoA [9]; after 1 min) was 2.3 fold.
